# Data reported in patent US12509407B2, “Biostimulant agent for treating plants and/or plant seed” (UNIFERX INTERNATIONAL GMBH, priority 2019, dated 2025).
# Legend:
# Format in all cases: in vivo
# soybean var. Niagara = experiment: Comparative test 3: field trial, increase in leaf area of soybean under heat stress; conditions: 10 days after treatment, third to sixth leaf from the top
# Protocol: (§1) The field trial was conducted in June 2019 on soils with brittle black earth. The humus content was 3.2-3.4% and the depth of the humus layer was 60-70 cm. Soil pH was 6.2-6.6, alkaline hydrolyzed nitrogen content was […] per kilogram, available phosphorus compounds content was […] per kilogram, and available potassium content was […] per kilogram. The average annual precipitation was 633 millimeters, whereas the precipitation in June was 87 millimeters. The average annual temperature was 7.4° C., the average temperature in June was 17.6° C., the average relative humidity was 76%, and the average relative humidity in June was 66%.
# (§2) During the duration of the field trial, the treated plants were exposed to heat stress with daily temperatures exceeding 30° C. […]
# (§3) All three groups of plants were treated once with the corresponding solution at the same times and with the same quantities. […]
# (§4) To determine the biological effect of the different treatments, the leaf area of the plants (sum of leaf area from the third to the sixth leaf from the top in square meters per hectare of field area) was determined in each case before the start of the treatments and 10 days after the treatment. Thereby, the biological effect corresponds to the determined increase of the leaf area at the end of the study period in percent. […]
# corn hybrid DKC 3511 = experiment: Comparative test 1: field trial, growth of leaf area of corn under heat stress; conditions: corn DKC 3511, heat stress >30° C., 10 days after single spray treatment, 1.15 liters protein hydrolysate and/or 0.68 kilograms glycine betaine per hectare
# Protocol: In a first field trial, the effect of the biostimulant agent according to the invention on the Growth of the leaf area of the corn hybrid DKC 3511 under heat stress was investigated. For comparison, the corresponding effect of the individual components protein hydrolysate and betaine was tested in parallel, each in the same amounts as contained in the biostimulant agent.
# The field trial was conducted in June 2019 on soils with brittle black earth. The humus content was 3.2-3.4% and the depth of the humus layer was 60-70 cm. Soil pH was 6.2-6.6, alkaline hydrolyzed nitrogen content was […] per kilogram, available phosphorus compounds content was […] per kilogram, and available potassium content was 120-130 grams per kilogram. […]
# as §3
# To determine the biological effect of the different treatments, the leaf area of the plants (sum of leaf area from the third to the sixth leaf from the top in square meters per hectare of field area) was determined in each case before the start of the treatments and 10 days after the treatment. Thereby, the biological effect corresponds to the determined increase of the leaf area at the end of the study period in percent.
# [1] = system: sunflower hybrid SI Diamantis; experiment: Comparative test 2: field trial, growth of leaf area of sunflowers under heat stress; conditions: heat stress >30° C., 10 days after treatment
# Protocol: as §1, §2, §3, §4
smiles,measurement,setting,value
"C[N+](C)(C)CC(=O)O [betaine, glycine betaine]",increase in leaf area (biological effect),soybean var. Niagara,no increase in leaf area was observed at all
same,increase in leaf area (biological effect),corn hybrid DKC 3511,0.2%
same,increase in leaf area (biological effect),[1],no increase in leaf area was observed at all
